Laboratory results as given in patent publication US20060166985A1, “Pyrrolydin-2-one derivatives as inhibitors of thrombin and factor xa” (priority 2002, published 2006).

These compounds were tested against human Thrombin (Homo sapiens, UniProt P00734) (assay: In vitro assay for inhibition of Thrombin (chromogenic or fluorogenic assay)). Conditions: Example 2 chromogenic assay, other Examples fluorogenic assay, read-out: thrombin inhibitory Ki.
Format: biochemical

Row | SMILES | Ki [µM]
1 | COC[C@@H](C(=O)N1CCOCC1)N1CC[C@H](NS(=O)(=O)CCc2ccc(Cl)cn2)C1=O [Example 50, 2-(5-chloro-2-pyridinyl)-N-{(3S)-1-[(1S)-1-[(methyloxy)methyl]-2-(4-morpholinyl)-2-oxoethyl]-2-oxo-3-pyrrolidinyl}ethanesulfonamide] | < 0.2
2 | CN(C)C(=O)C[C@@H](C(=O)N1CCOCC1)N1CC[C@H](NS(=O)(=O)CCc2ccc(Cl)s2)C1=O [Example 32] | < 0.05
3 | COC[C@@H](C(=O)N1CCOCC1)N1CC[C@H](NS(=O)(=O)CCc2ccc(Cl)cc2)C1=O [Example 89, 2-(4-chlorophenyl)-N-{(3S)-1-[(1S)-1-[(methyloxy)methyl]-2-(4-morpholinyl)-2-oxoethyl]-2-oxo-3-pyrrolidinyl}ethanesulfonamide] | < 0.05
4 | O=C([C@H](Cc1cscn1)N1CC[C@H](NS(=O)(=O)CCc2ccc(Cl)cc2)C1=O)N1CCOCC1 [Example 72, 2-(4-chlorophenyl)-N-{(3S)-1-[(1S)-2-(4-morpholinyl)-2-oxo-1-(1,3-thiazol-4-ylmethyl)ethyl]-2-oxo-3-pyrrolidinyl}ethanesulfonamide] | < 0.2
5 | CCSC[C@@H](C(=O)N1CCOCC1)N1CC[C@H](NS(=O)(=O)CCc2ccc(Cl)s2)C1=O [Example 75, 2-(5-chloro-2-thienyl)-N-{(3S)-1-[(1R)-1-((ethylthio)methyl]-2-(4-morpholinyl)-2-oxoethyl]-2-oxo-3-pyrrolidinyl}ethanesulfonamide] | < 0.05
6 | C[C@@H](C(=O)N1CCOCC1)N1CC[C@H](NS(=O)(=O)/C=C(\F)c2ccc(Cl)cc2)C1=O [Example 28, (Z)-2-(4-chlorophenyl)-2-fluoro-N-{(3S)-1-[(1S)-1-methyl-2-morpholin-4-yl-2-oxoethyl]-2-oxopyrrolidin-3-yl}ethenesulfonamide] | < 0.025
7 | O=C(C[C@@H](C(=O)N1CCOCC1)N1CC[C@H](NS(=O)(=O)CCc2ccc(Cl)s2)C1=O)N1CCOCC1 [Example 31] | < 0.2
8 | O=C(C[C@@H](C(=O)N1CCOCC1)N1CC[C@H](NS(=O)(=O)CCc2ccc(Cl)s2)C1=O)OCc1ccccc1 [Example 21, Benzyl (3S)-3-[(3S)-3-({[2-(5-chlorothien-2-yl)ethyl]sulfonyl}amino)-2-oxopyrrolidin-1-yl]-4-morpholin-4-yl-4-oxobutanoate] | < 0.01
9 | C[C@@H](C(=O)N1CCOCC1)N1CC[C@H](NS(=O)(=O)/C=C/c2ccc(Cl)cc2)C1=O [(E)-2-(4-chlorophenyl)-N-{(3S)-1-[(1S)-1-methyl-2-morpholin-4-yl-2-oxoethyl]-2-oxopyrrolidin-3-yl}ethenesulfonamide, reference compound] | > 0.2
10 | O=C([C@H](Cc1cccs1)N1CC[C@H](NS(=O)(=O)CCc2ccc(Cl)cc2)C1=O)N1CCOCC1 [Example 24, 2-(4-chlorophenyl)-N-{(3S)-1-[(1S)-2-morpholin-4-yl-2-oxo-1-(thien-2-ylmethyl)ethyl]-2-oxopyrrolidin-3-yl}ethanesulfonamide] | < 0.025
11 | CC(C)[C@@H](C(=O)N1CCOCC1)N1CC[C@H](NS(=O)(=O)CCc2ccc(Cl)cc2)C1=O [Example 45, 2-(4-chlorophenyl)-N-{(3S)-1-[(1S)-2-methyl-1-(morpholin-4-ylcarbonyl)propyl]-2-oxopyrrolidin-3-yl}ethanesulfonamide] | < 0.05
12 | N#CC[C@@H](C(=O)N1CCOCC1)N1CC[C@H](NS(=O)(=O)CCc2ccc(Cl)s2)C1=O [Example 76, 2-(5-chloro-2-thienyl)-N-{(3S)-1-[(1S)-1-(cyanomethyl)-2-(4-morpholinyl)-2-oxoethyl]-2-oxo-3-pyrrolidinyl}ethanesulfonamide] | < 0.1
13 | CO[C@H](C)[C@@H](C(=O)N1CCOCC1)N1CC[C@H](NS(=O)(=O)CCc2ccc(Cl)s2)C1=O [Example 17, 2-(5-chlorothien-2-yl)-N-{(3S)-1-[(1S,2R)-2-methoxy-1-(morpholin-4-ylcarbonyl)propyl]-2-oxopyrrolidin-3-yl}ethanesulfonamide] | < 0.01
14 | COC[C@@H](C(=O)N1CCOCC1)N1CC[C@H](NS(=O)(=O)CC(=O)c2ccc(Cl)cc2)C1=O [Example 52] | < 0.05
15 | COCC[C@@H](C(=O)N1CCOCC1)N1CC[C@H](NS(=O)(=O)CCc2ccc(Cl)s2)C1=O [Example 88] | < 0.025
16 | CN(Cc1ccccc1)C(=O)C[C@@H](C(=O)N1CCOCC1)N1CC[C@H](NS(=O)(=O)CCc2ccc(Cl)s2)C1=O [Example 83, (3S)-3-[(3S)-3-({[2-(5-chloro-2-thienyl)ethyl]sulfonyl)amino)-2-oxo-1-pyrrolidinyl]-N-methyl-4-(4-morpholinyl)-4-oxo-N-(phenylmethyl)butanamide] | < 0.05
17 | COC[C@@H](C(=O)N1CCOCC1)N1CC[C@H](NS(=O)(=O)CC2CCc3cc(Cl)ccc32)C1=O (stereo partly drawn) [Example 62, 1-(5-chloro-2,3-dihydro-1H-inden-1-yl)-N-{(3S)-1-[(1S)-1-[(methyloxy)methyl]-2-(4-morpholinyl)-2-oxoethyl]-2-oxo-3-pyrrolidinyl}methanesulfonamide] | < 0.2
18 | C/C(=C\S(=O)(=O)N[C@H]1CCN([C@@H](Cc2ccccc2)C(=O)N2CCOCC2)C1=O)c1ccc(Cl)s1 [Example 14, (1E)-N-{(3S)-1-[(1S)-1-benzyl-2-morpholin-4-yl-2-oxoethyl]-2-oxopyrrolidin-3-yl}-2-(5-chlorothien-2-yl)prop-1-ene-1-sulfonamide] | < 0.01
19 | CC[C@@H](C(=O)N1CCOCC1)N1CC[C@H](NS(=O)(=O)/C=C(\C)c2ccc(Cl)s2)C1=O [Example 7, (1E)-2-(5-chlorothien-2-yl)-N-{(3S)-1-[(1S)-1-(morpholin-4-ylcarbonyl)propyl]-2-oxopyrrolidin-3-yl}prop-1-ene-1-sulfonamide] | < 0.01
20 | COC[C@@H](C(=O)N1CCOCC1)N1CC[C@H](NS(=O)(=O)C[C@@H]2CCc3cc(Cl)ccc32)C1=O [Example 68, 1-[(1R)-5-chloro-2,3-dihydro-1H-inden-1-yl]-N-{(3S)-1-[(1S)-1-[(methyloxy)methyl]-2-(4-morpholinyl)-2-oxoethyl]-2-oxo-3-pyrrolidinyl}methanesulfonamide] | < 0.05
21 | CCOC[C@@H](C(=O)N1CCOCC1)N1CC[C@H](NS(=O)(=O)/C=C(\C)c2ccc(Cl)s2)C1=O [Example 87, (1E)-2-(5-chloro-2-thienyl)-N-{(3S)-1-[(1S)-1-[(ethyloxy)methyl]-2-(4-morpholinyl)-2-oxoethyl]-2-oxo-3-pyrrolidinyl}-1-propene-1-sulfonamide] | < 0.01
22 | O=C([C@H](Cc1cccs1)N1CC[C@H](NS(=O)(=O)CCc2ccc(Cl)s2)C1=O)N1CCOCC1 [Example 23, 2-(5-chlorothien-2-yl)-N-{(3S)-1-[(1S)-2-morpholin-4-yl-2-oxo-1-(thien-2-ylmethyl)ethyl]-2-oxopyrrolidin-3-yl}ethanesulfonamide] | < 0.01
23 | O=C([C@H](CCN1CCOCC1)N1CC[C@H](NS(=O)(=O)CCc2ccc(Cl)s2)C1=O)N1CCOCC1 [Example 95, 2-(5-chloro-2-thienyl)-N-{(3S)-1-[(1S)-3-(4-morpholinyl)-1-(4-morpholinylcarbonyl)propyl]-2-oxo-3-pyrrolidinyl}ethanesulfonamide] | < 0.1
24 | O=C([C@H](Cc1ccncc1)N1CC[C@H](NS(=O)(=O)CCc2ccc(Cl)s2)C1=O)N1CCOCC1 [Example 90, 2-(5-chloro-2-thienyl)-N-{(3S)-1-[(1S)-2-(4-morpholinyl)-2-oxo-1-(4-pyridinylmethyl)ethyl]-2-oxo-3-pyrrolidinyl}ethanesulfonamide] | < 0.05
25 | C[C@@H](C(=O)N1CCOCC1)N1CC[C@H](NS(=O)(=O)CC(F)(F)c2ccc(Cl)cc2)C1=O [Example 27, 2-(4-chlorophenyl)-2,2-difluoro-N-{(3S)-1-[(1S)-1-methyl-2-morpholin-4-yl-2-oxoethyl]-2-oxopyrrolidin-3-yl}ethanesulfonamide] | < 0.025
26 | CC(CS(=O)(=O)N[C@H]1CCN([C@@H](C)C(=O)N2CCOCC2)C1=O)c1ccc(Cl)s1 (stereo partly drawn) [Example 54, 2-(5-chloro-2-thienyl)-N-{(3S)-1-[(1S)-1-methyl-2-(4-morpholinyl)-2-oxoethyl]-2-oxo-3-pyrrolidinyl}-1-propanesulfonamide] | < 0.1
27 | O=C([C@H](Cc1cccnc1)N1CC[C@H](NS(=O)(=O)CCc2ccc(Cl)s2)C1=O)N1CCOCC1 [Example 91, 2-(5-chloro-2-thienyl)-N-{(3S)-1-[(1S)-2-(4-morpholinyl)-2-oxo-1-(3-pyridinylmethyl)ethyl]-2-oxo-3-pyrrolidinyl}ethanesulfonamide] | < 0.01
28 | C/C(=C\S(=O)(=O)N[C@H]1CCN([C@@H](C)C(=O)N2CCOCC2)C1=O)c1ccc(Cl)cc1 [Example 3, (1E)-2-(4-chlorophenyl)-N-{(3S)-1-[(1S)-1-methyl-2-morpholin-4-yl-2-oxoethyl]-2-oxopyrrolidin-3-yl}prop-1-ene-1-sulfonamide] | < 0.025
29 | CC[C@H](C)[C@@H](C(=O)N1CCOCC1)N1CC[C@H](NS(=O)(=O)/C=C(\C)c2ccc(Cl)s2)C1=O [Example 11, (1E)-2-(5-chlorothien-2-yl)-N-{(3S)-1-[(1S,2S)-2-methyl-1-(morpholin-4-ylcarbonyl)butyl]-2-oxopyrrolidin-3-yl}prop-1-ene-1-sulfonamide] | < 0.01
